Results on 4 compounds are retold here after patent publication US20090022694A1, “SIRT1 INHIBITION” (priority 2005, published 2009).

A word on the IC50: it is the concentration at which inhibition is half-maximal. High values mean weaker potency in that assay, low ones greater potency in that assay.

The target in this assay is T1, SirT1 (Homo sapiens, UniProt Q96EB6).
T1 sequence (Q96EB6 1-747): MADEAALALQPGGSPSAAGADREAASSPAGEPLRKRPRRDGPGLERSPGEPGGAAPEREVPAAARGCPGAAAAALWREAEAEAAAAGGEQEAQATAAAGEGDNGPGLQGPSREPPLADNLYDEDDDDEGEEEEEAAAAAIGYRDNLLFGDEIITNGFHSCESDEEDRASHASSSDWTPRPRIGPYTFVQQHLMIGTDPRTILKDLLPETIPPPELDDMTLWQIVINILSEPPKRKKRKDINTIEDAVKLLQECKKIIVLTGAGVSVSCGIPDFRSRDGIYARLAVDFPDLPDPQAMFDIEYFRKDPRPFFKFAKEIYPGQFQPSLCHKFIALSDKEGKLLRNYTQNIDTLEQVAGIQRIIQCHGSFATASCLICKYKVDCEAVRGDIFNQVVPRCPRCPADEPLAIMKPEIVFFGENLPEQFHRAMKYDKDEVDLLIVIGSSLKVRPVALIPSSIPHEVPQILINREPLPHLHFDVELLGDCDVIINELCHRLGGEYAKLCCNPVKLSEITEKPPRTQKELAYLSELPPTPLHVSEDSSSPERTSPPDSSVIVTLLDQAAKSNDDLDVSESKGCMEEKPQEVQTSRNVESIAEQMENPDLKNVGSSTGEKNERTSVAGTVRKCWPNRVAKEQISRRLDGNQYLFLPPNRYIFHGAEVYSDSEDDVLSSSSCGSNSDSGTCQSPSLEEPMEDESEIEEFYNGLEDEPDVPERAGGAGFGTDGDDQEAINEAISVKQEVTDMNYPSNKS
Kind of assay: SirT1 enzymatic assay, p53-382 Fluor-de-Lys (FdL). As to conditions: for IC50: Table 1, exemplary compounds. It counts as biochemical. An excerpt:
The ability of a compound to inhibit SIRT1 can be evaluated in many ways. In some embodiments, interaction with, e.g., binding of, SIRT1 can be assayed in vitro. The reaction mixture can include a SIRT1 co-factor such as NAD and/or a NAD analog. In other embodiments, the ability of the compound to inhibit an enzymatic function, e.g., deacetylase activity of SIRT1, can be assayed in vitro. Assays can include determining the IC50 of the compound.
An exemplary assay method includes a multi-well format of the SirT1 enzymatic assay that is based on the commercial “Fluor-de-Lys” assay principle by Biomol, which is fluorogenic (www.biomol.com/store/Product_Data_PDFs/ak500.pdf). In this assay, deacetylation of the s-amino function of a lysyl residue is coupled to a fluorogenic development step that is dependent on the unblocked ε-amino functionality and generates fluorescent aminomethylcoumarin. Fluorescence can be read on a commercial […]. Standard enzymological analyses can be used to determine Ki.

In the case of `NC(=O)C1CCCc2c1[nH]c1ccc(Cl)cc21` (single isomer, unassigned) [isomer of compound 4 having a negative optical rotation, 6-Chloro-2,3,4,9-tetrahydro-1H-carbazole-1-carboxylic acid amide], the “activity against the SirT1 enzyme compared with the enantiomer” value (isomer with negative optical rotation vs enantiomer with positive optical rotation) is on record as “greater activity against the SirT1 enzyme”.
`O=C(O)C1CCCc2c1[nH]c1ccc(O)cc21` (stereo not shown) [Compound 54, 6-hydroxy-2,3,4,9-tetrahydro-1H-carbazole-1-carboxylic acid] showed an IC50 of more than 10 µM.
The compound `NC(=O)C1NCCc2c1[nH]c1ccc(Cl)cc21` (stereo not shown) [Compound 56, 6-chloro-2,3,4,9-tetrahydro-1H-pyrido[3,4-b]indole-1-carboxamide] had an IC50 of more than 10 µM.
On to `CC(=O)N1CCc2c([nH]c3ccc(Cl)cc23)C1C(N)=O` (stereo not shown) [Compound 58, 2-acetyl-6-chloro-2,3,4,9-tetrahydro-1H-pyrido[3,4-b]indole-1-carboxamide], for which the 50% inhibitory concentration (IC50) was more than 10 µM.
